Laboratory results reported in patent publication US20230024119A1, “COMBINED USE OF SODIUM TRANS-[TETRACHLORIDOBIS(1H-INDAZOLE)RUTHENATE(III)] AND ETOMOXIR FOR TREATING CANCERS” (Bold Therapeutics, Inc., priority 2019, published 2023).

How the values were obtained:
KP1339-resistant cells = details: upon KP1339 treatment
Experimental: (§1) (also referred to herein as KP1339 or BOLD-100 or IT139). […] Lipid storage compartments (lipid droplets) were visualized fluorescently with Bodipy 493/503. Utilizing specific pharmacological inhibitors, the role of altered lipid metabolism components in KP1339 resistance was dissected. Mitochondrial oxygen consumption rate (OCR) and extracellular acidification rate (ECAR) were assessed by Seahorse XF analysis. Lipidomics and consecutive proteomics analysis were used to further characterize the resistance phenotype.

sensitive HCT116 cells = test system: sensitive HCT116 cells
Experimental: as §1

[1] = test system: HCT116 and Capan1 cell models with acquired KP1339 resistance; assay: Sensitivity of KP1339-resistant cell models to lipid-modulating agents; format: cell-based
Experimental: as §1

## [Cl][Ru]([Cl])([Cl])[Cl].[Na+].c1ccc2[nH]ncc2c1.c1ccc2[nH]ncc2c1 [KP1339, Sodium trans-[tetrachloridobis(1H-indazole)ruthenate(III)]]
KP1339-resistant cells
  mitochondrial oxygen consumption rate (OCR): stayed unchanged in resistant cells
Sensitive HCT116 cells; Seahorse Mito Stress Test, sensitive HCT116 cells
  extracellular acidification rate (ECAR): massively reduced ECAR
Sensitive HCT116 cells; upon KP1339 treatment, parental cells
  mitochondrial oxygen consumption rate (OCR): reduced in parental
Cooling the solution during the formulation process
  amount of Compound A present in the lyophilized product: greatly reduce the amount of Compound A
In water
  degradation in water: can degrade in water to Compound A

## CCCCCCCCCCC[C@@H](C[C@@H]1OC(=O)[C@H]1CCCCCC)OC(=O)[C@H](CC(C)C)NC=O [orlistat]
[1]
  sensitivity towards lipid-modulating agents: hypersensitive

## CCC/C=C/C/C=C/C=C/C=N/NN=O [triacsin C]
[1]
  sensitivity towards lipid-modulating agents: hypersensitive
